Measured values reported in patent publication US20250228824A1, “COMPOSITIONS AND METHODS FOR INHIBITION OF ITO AS TREATMENT FOR THE J WAVE SYNDROMES AND HYPOTHERMIA” (Lankenau Institute for Medical Research, priority 2021, published 2025).

Legend:
[1] = test system: canine right ventricular epicardial myocytes; experiment: Action potential recording (current clamp) in canine RV epicardial myocytes; assay type: cell-based; details: 10 μM
Protocol: Single myocytes were isolated from coronary-perfused canine right or left ventricular wedge preparations via enzymatic dissociation. Briefly, the wedge preparations were coronary perfused with nominally Ca^+2-free Tyrode's solution for a period of 15 min. They were then subjected to enzymatic digestion in nominally Ca^2+-free solution supplemented with 0.6 mg/ml collagenase (type II; Worthington) and 0.075 mg/ml protease (type XIV; Sigma) for 25-35 min. The wedge preparation was then perfused for 15 min with a taurine buffer solution containing (in mM): 108 NaCl, 10 HEPES, 11 D-glucose, 4 KCl, 1.2 MgSO4, 1.2 NaH2PO4, 50 taurine and 0.025 CaCl2. pH was adjusted to 7.4 using NaOH. After perfusion, thin slices of tissue were cut from the epicardial surface to obtain single epicardial cells as previously described.^6
Ito and APs were measured in isolated RV or LV myocytes. APs were measured in the current-clamp mode in the whole-cell configuration. APs were initiated using intracellular current injection and recorded continuously by means of Clampex software (Axon Instruments/Molecular Devices) at a sampling frequency of […]. Ito was measured using the Axopatch 200B-2 amplifier in V-Clamp mode.

[2] = test system: coronary-perfused canine right (RV) and left (LV) ventricular wedge models of JWS; experiment: Coronary-perfused ventricular wedge models of the J wave syndromes (NS5806 alone or with verapamil); set-up: QT interval / T wave amplitude / Epi (APD50) / Epi (APD90): unit not given here
Protocol: Ten hearts from purpose-bred adult male mongrel dogs (20-22 kg) were acquired from Covance (Denver, PA) and another 10 hearts from purpose-bred adult male Beagle dogs (10-16 kg) were obtained from Envigo (Denver, PA). Dogs were sedated with ketamine (10 mg/kg, IM) and xylazine 2 (mg/kg, IM). Prior to euthanasia (Euthasol solution: pentobarbital sodium and phenytoin sodium; 0.22 ml/kg, IV), and heparin (human pharmaceutical grade, 1,000 U/kg, IV) were administered 3-4 min before isolation of the hearts via a left thoracotomy. Retrograde aortic perfusion of the hearts with ice-cold cardioplegic solution (modified K-H solution; 16 mM KCl) was immediately performed to rinse the coronary vasculature of blood. The hearts were then placed in a sealed container containing ice-cold cardioplegic solution and transported to our institution via private courier in an insulated package filled with icepacks.
(§1) Transmural wedges were dissected from the base of the RV and LV. During the cannulation procedure, preparations were initially arterially perfused with cardioplegic solution. Next, the wedge preparations were placed in a tissue bath and perfused with a modified Krebs-Henseleit solution (K—H) bubbled with 95% O2/5% CO2 warmed to 37° C. The composition of K—H was (in mM): 118 NaCl, 4 KCl, 2 CaCl2, 1.2 MgSO4, 24 NaHCO3, 1.2 NaH2PO4, 2 Na Pyruvate and 10 D-Glucose. The perfusate was delivered at a constant pressure (45-50 mmHg). A transmural pseudo-ECG (ECG) was recorded using two Ag/AgCl half cells placed at ˜1 cm from the Epi (+) and Endo (−) surfaces along the same axis as the transmembrane action potential (AP) recordings. APs were simultaneously recorded from the immediate sub-Epi and M cell region (˜2-3 mm from the Endo surface) using floating glass microelectrodes. Pacing was applied to the Endo surface using bipolar silver electrodes insulated except at the tips (Basic Cycle Lengths [BCLs]: 500-2,000 ms). A detailed description of the arterially-perfused ventricular wedge preparation has been previously published.^5 ECG and AP signals were digitized and analyzed using Spike 2 for Windows (Cambridge Electronic Design, Cambridge, UK).
We used the Ito-agonist NS5806 (5-10 μM) alone or with the calcium-channel blocker verapamil (2.5 μM) to pharmacologically mimic the effects of the ion channel genetic defects underlying ERS and BrS. These provocative agents were added to the coronary perfusate in increasing concentrations until the characteristic ECG phenotypes were unmasked, including phase 2 reentry (P2R), closely coupled premature beats (CCPBs) and/or pVT/VF. AR-787 was added to the perfusate to test its ability to suppress or prevent arrhythmogenesis.

[3] = test system: coronary-perfused canine right ventricular (RV) wedge models of JWS, hypothermia; experiment: Coronary-perfused RV wedge model of hypothermia (NS5806 plus decreasing temperature); details: NS5806 2 μM, 32.7±0.5° C., AR-787 10 μM, 20 min
Protocol: as §1, with “Pacing was applied to the Endo surface using bipolar silver electrodes insulated except at the tips (Basic Cycle Lengths [BCLs]: 500-2,000 ms).” left out, “UK). […]” for “UK).”
FIG. 9A-9C show the ability of AR-787 to suppress the ECG and arrhythmic manifestations in a model of hypothermia. […] The third grouping was recorded 10 minutes after lowering the temperature of the perfusate to 32.7±0.5° C. […] The fourth column was recorded 20 min after addition of AR-787 (10 μM).

[4] = AR-787 10 μM following NS5806 5-10 μM, 3 LV wedges, BCL 800 msec

With `Cc1nc(-n2cccc2)sc1C(=O)N=c1[nH]c2ccccc2[nH]1` [AR-787, N-(1H-benzimidazol-2-yl)-4-methyl-2-pyrrol-1-yl-thiazole-5-carboxamide] the “Action potential duration (APD)” value [1] was “tendency to abbreviate but this effect was not statistically significant”, the “effect on AP notch” value ([1]; 0.5 Hz) was “significantly suppressed the AP notch” and the “effect on NS5806-induced J wave syndrome phenotype” value ([2]; AR-787 10 μM after NS5806 5-10 μM) was “reversed these effects induced by NS5806”. For the same molecule, the “Epi (APD50)” value [2, 4] was 173.9 ± 7.8, the “Epi (APD90)” value [2, 4] was 209.0 ± 8.1 and the J wave amplitude [2, 4] was 8.7 ± 5.7. For the same molecule, the “M (APD50)” value [2, 4] was 179.0 ± 11.4, the “M (APD90)” value [2, 4] was 235.0 ± 11.1 and the “Ph1 mag (% Ph0)” value [2, 4] was 25.4 ± 4.9 % Ph0. For the same molecule, the QT interval [2, 4] was 254.3 ± 10.0, the T wave amplitude [2, 4] was 19.0 ± 1.8 and the “manifestation of AP notch and ECG J wave” value ([2]; AR-787 1, 10 and 50 μM after NS5806 10 μM, LV and RV wedges) was “concentration-dependent diminution in the manifestation of the AP notch and associated ECG J wave”. For the same molecule, the QT interval ([2]; AR-787 1, 10 or 50 μM, NS5806 5-10 μM, five wedges) was “unaffected”, the “effect on NS5806-augmented Epi Ph1 magnitude and J wave amplitude” value ([2]; AR-787 1, 10 or 50 μM, NS5806 5-10 μM, five wedges (4 LV and 1 RV)) was “readily reversed the effect of NS5806” and the “ECG and arrhythmic manifestations (extrasystole, polymorphic VT) in ERS model” value ([2]; LV wedge, NS5806 10 μM and verapamil 2.5 μM, AR-787 10 μM, 30 min) was “reduced Phase 1 magnitude, restored the AP dome and totally suppressed all arrhythmic activity”. The “restoration of AP dome and suppression of Phase 2 reentry extrasystoles” value ([2]; RV wedge, 40 min NS5806 10 μM, AR-787 50 μM but not 10 μM) was “effective in fully restoring the AP dome and in totally suppressing this arrhythmic activity” and the “hypothermia-induced AP notch, J wave, phase 2 reentry and pVT” value [3] was “diminished the action potential (AP) notch and J wave”.
